Laboratory results published in PubChem BioAssay (NCI).
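Five concentrations, 48 hours, 96-well plates. TGI is the concentration that stops growth completely.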

Legend:
Test in all cases: NCI tumour cell line growth inhibition, 48 h
786-0 renal = test system: 786-0 renal
BT-549 breast = test system: BT-549 breast
COLO 205 colon = test system: COLO 205 colon
DU-145 prostate = test system: DU-145 prostate
EKVX NSCLC = test system: EKVX NSCLC
HOP-62 NSCLC = test system: HOP-62 NSCLC
HOP-92 NSCLC = test system: HOP-92 NSCLC
MOLT-4 leukemia = test system: MOLT-4 leukemia
NCI-H522 lung = test system: NCI-H522 lung
NCI/ADR-RES ovarian = test system: NCI/ADR-RES ovarian
OVCAR-4 ovarian = test system: OVCAR-4 ovarian
SF-539 CNS = test system: SF-539 CNS
SNB-19 CNS = test system: SNB-19 CNS
SW-620 colon = test system: SW-620 colon
TK-10 renal = test system: TK-10 renal
U251 CNS = test system: U251 CNS
UACC-257 melanoma = test system: UACC-257 melanoma
UO-31 renal = test system: UO-31 renal
IGROV1 ovarian = test system: IGROV1 ovarian
SK-MEL-5 melanoma = test system: SK-MEL-5 melanoma

SMILES	TGI (786-0 renal)	TGI (BT-549 breast)	TGI (COLO 205 colon)	TGI (DU-145 prostate)	TGI (EKVX NSCLC)	TGI (HOP-62 NSCLC)	TGI (HOP-92 NSCLC)	TGI (MOLT-4 leukemia)	TGI (NCI-H522 lung)	TGI (NCI/ADR-RES ovarian)	TGI (OVCAR-4 ovarian)	TGI (SF-539 CNS)	TGI (SNB-19 CNS)	TGI (SW-620 colon)	TGI (TK-10 renal)	TGI (U251 CNS)	TGI (UACC-257 melanoma)	TGI (UO-31 renal)	TGI (IGROV1 ovarian)	TGI (SK-MEL-5 melanoma)
C[n+]1c2ccccc2n2c3ccccc3c(NCCc3ccccn3)c(C#N)c21	7.58 µM	> 23.3 µM	5.88 µM	7.01 µM	19.5 µM	11.8 µM	> 100 µM	> 22.5 µM	3.95 µM	> 60 µM	5.93 µM	12.6 µM	> 26.8 µM	3.24 µM	7.88 µM	12.7 µM	16.6 µM	6.51 µM		
C=CCc1cc(C=C(C#N)C#N)cc(OC)c1O	> 100 µM	> 100 µM	> 100 µM	> 100 µM	> 100 µM		> 100 µM	> 100 µM	> 100 µM	> 100 µM	> 100 µM	> 100 µM	> 100 µM	> 100 µM	> 100 µM	> 100 µM	> 100 µM	> 100 µM	> 100 µM	> 100 µM
O=C1CCCC(=O)N1n1c(Cc2ccccc2)n[nH]c1=O	> 100 µM	> 100 µM	> 100 µM	> 100 µM	> 100 µM	> 100 µM	> 100 µM	> 100 µM	> 100 µM	> 100 µM	> 100 µM			> 100 µM	> 100 µM	> 100 µM	> 100 µM	> 100 µM	> 100 µM	> 100 µM
O=c1c2ccccc2nc2n1C(c1ccc([N+](=O)[O-])cc1)C2(c1ccccc1)c1ccccc1 (stereo not given)	> 100 µM	> 100 µM	> 100 µM	> 100 µM	> 100 µM	> 100 µM	> 100 µM	> 100 µM	> 100 µM	> 100 µM	> 100 µM	> 100 µM	> 100 µM	> 100 µM	> 100 µM	> 100 µM	> 100 µM		> 100 µM	> 100 µM
COC(=O)c1ccc(NCc2c(O)ccc(O)c2Br)cc1Cl	32.6 µM	24.7 µM	33.4 µM	30.4 µM	28.5 µM		28.4 µM	40.9 µM	3.51 µM	44.9 µM	44.2 µM	30.4 µM	> 100 µM	25 µM		30.4 µM	83.8 µM	29.8 µM	28.7 µM	34.6 µM
CCOC(=O)C1=c2[nH]c3cccc4cccc(c43)n2C(=O)CC1c1ccccc1 (stereo not given)	> 100 µM	> 100 µM	> 100 µM	> 100 µM	> 100 µM	> 100 µM	> 100 µM	> 100 µM	> 100 µM	> 100 µM	> 100 µM		> 100 µM	> 100 µM	> 100 µM	> 100 µM	> 100 µM	> 100 µM	> 100 µM	> 100 µM
Nn1c(CCCCCCCCc2nnc(COc3ccccc3)n2N)nnc1COc1ccccc1	> 100 µM	> 100 µM	> 100 µM	> 100 µM	> 100 µM	> 100 µM	> 100 µM	> 100 µM	> 100 µM	> 100 µM	> 100 µM		> 100 µM	> 100 µM	> 100 µM	> 100 µM	> 100 µM	> 100 µM	> 100 µM	> 100 µM
Cc1ccc(C2SCC(=O)N2c2ccc(-c3ccc(-n4c(-c5ccccc5)nc5ccccc5c4=O)cc3)cc2)cc1 (stereo not given)	> 100 µM	> 100 µM	> 100 µM	> 100 µM	> 100 µM	> 100 µM	> 100 µM	> 100 µM	> 100 µM	> 100 µM	> 100 µM		> 100 µM	> 100 µM	> 100 µM	> 100 µM	> 100 µM	> 100 µM	> 100 µM	> 100 µM
COC1(OC)N=C(N)C2(C#N)C3(C(=O)N(C(C)C)N=C3C)C12C#N (stereo not given)	> 100 µM	> 100 µM	> 100 µM	> 100 µM	> 100 µM	> 100 µM	> 100 µM	> 100 µM	> 100 µM	> 100 µM	> 100 µM	> 100 µM	> 100 µM	> 100 µM		> 100 µM	> 100 µM	> 100 µM	> 100 µM	
COc1cccc(C2ON=C(c3ccccc3)N2C23CC4CC(CC(C4)C2)C3)c1 (stereo not given)	> 10 µM	> 10 µM	> 10 µM	> 10 µM	> 10 µM	> 10 µM	> 10 µM	> 10 µM	> 10 µM	> 10 µM	> 10 µM	> 10 µM	> 10 µM	> 10 µM	> 10 µM	> 10 µM	> 10 µM		> 10 µM	> 10 µM
COc1cc(/C=C/c2nc(N)nnc2C)cc(OC)c1OC	> 60.6 µM	> 64 µM	> 53 µM	> 100 µM	> 72.9 µM	29 µM	> 100 µM	> 90.7 µM	21.7 µM	> 90.2 µM	> 73.7 µM		> 82.2 µM	> 100 µM	> 77.3 µM	> 100 µM	> 59.8 µM	> 42 µM	37.3 µM	52.2 µM
